For nine compounds, IC50 results are on record in ChEMBL document CHEMBL1143609, “Conformationally restricted analogues of psorospermin: design, synthesis, and bioactivity of natural-product-related bisfuranoxanthones” (J Med Chem, 2005).

Each structure is given as a SMILES string.

Common to all, as to type: functional, cell-based
What all share (details): Homo sapiens

One test concerns NCI-H522. The test is described as follows: Inhibitory concentration against H522 cell line.
A further test concerns HT-29. In words: Inhibitory concentration against HT-29 cell line.
Another test deals with HeLa. The test is described as follows: Inhibitory concentration against HeLa cell line.
For a further test, the system named is HepG2. The test is described as follows: Inhibitory concentration against HepG2 cell line.
A further test deals with MIA PaCa-2. The test is described as follows: Inhibitory concentration against MIA PaCa cell line.
Another test deals with COLO 320. In words: Inhibitory concentration against COLO 320 cell line.

For orientation: IC50 means the point on the concentration scale where inhibition reaches its midpoint. High values mean a need for much substance, low ones inhibition by little substance.

Consider `COc1cccc2c(=O)c3c(O)cc4c(c3oc12)[C@@H]1OC[C@](O)(CCl)[C@@H]1O4`, for which the 50% inhibitory concentration (IC50) in the test with NCI-H522 is 7.14 µM; in the test with HT-29 it was 7.13 µM; in the test on HeLa, 7.5 µM; in the test with HepG2 it was above 30 µM; in the test on MIA PaCa-2 it was 3.76 µM; in the test with COLO 320, 0.9 µM.

On to `COc1cccc2c(=O)c3c(O)cc4c(c3oc12)[C@@H]1OC[C@](O)(CO)[C@@H]1O4`, for which the IC50 was 20 µM in the test on NCI-H522; 36.7 µM in the test with HT-29; 19 µM in the test with HeLa; above 30 µM in the test with HepG2; 12.3 µM in the test with MIA PaCa-2; 12.3 µM with COLO 320.

For the compound `COc1cccc2c(=O)c3c(O)c4c(cc3oc12)O[C@@H]1[C@H]4OC[C@@]1(C)O`, the IC50 was above 30 µM with NCI-H522; above 30 µM in the test on HT-29; 23.5 µM in the test on HeLa; above 30 µM with HepG2; above 30 µM in the test with MIA PaCa-2; above 30 µM in the test with COLO 320.

Take `COc1cccc2c(=O)c3c(O)cc4c(c3oc12)[C@@H]1OC[C@]2(CO2)[C@@H]1O4`: the IC50 in the test with NCI-H522 is 19.4 µM; with HT-29 it was above 30 µM; in the test on HeLa, 32.5 µM; in the test with HepG2, 13.1 µM; in the test on MIA PaCa-2, 10.9 µM; in the test with COLO 320 it was 9.19 µM.

With `C=C1CO[C@H]2c3c(cc(O)c4c(=O)c5cccc(OC)c5oc34)O[C@@H]12`, the concentration for half-maximal inhibition (IC50) in the test with NCI-H522, with HT-29, in the test with HeLa, in the test on HepG2, with MIA PaCa-2 and in the test with COLO 320 was above 30 µM throughout.

With `COc1cccc2c(=O)c3c(O)c4c(cc3oc12)O[C@@H]1[C@H]4OC[C@]1(C)O`, the concentration for half-maximal inhibition (IC50) was above 30 µM in the test with NCI-H522; above 30 µM with HT-29; 23.5 µM in the test on HeLa; above 30 µM in the test on HepG2; above 30 µM in the test on MIA PaCa-2; above 30 µM with COLO 320.

Turning to `COc1cccc2c(=O)c3c(O)cc4c(c3oc12)C[C@H]([C@](C)(O)CO)O4`, the 50% inhibitory concentration (IC50) in the test with NCI-H522, in the test on HT-29, in the test on HeLa, in the test on HepG2, in the test on MIA PaCa-2 and in the test with COLO 320 was above 30 µM throughout.

Take `COc1cccc2c(=O)c3c(O)cc4c(c3oc12)C[C@H]([C@@](C)(O)CO)O4`: the IC50 is 28.4 µM with NCI-H522; above 30 µM with HT-29; above 30 µM in the test with HeLa; above 30 µM in the test on HepG2; 23.8 µM in the test on MIA PaCa-2; 19.2 µM in the test on COLO 320.

`COc1cc2c(c3oc4c(O)cccc4c(=O)c13)C[C@H]([C@@]1(C)CO1)O2` [PSOROSPERMIN]: the 50% inhibitory concentration (IC50) in the test with NCI-H522 is 0.45 µM; in the test on HT-29 it was 0.64 µM; with HeLa, 0.71 µM; with HepG2, 0.38 µM; with MIA PaCa-2, 0.21 µM; in the test with COLO 320, 0.069 µM.
